Patent US7371766B2, “Curcumin analogs with anti-tumor and anti-angiogenic properties” (Emory University, priority 1999, dated 2008)

Legend:
SK-MEL-2 = assay: cells; conditions: Homo sapiens, SK-MEL-2, 48 h; for GI50: read-out: Median Growth Inhibitory Concentration (GI50); for CC50: read-out: Median Lethal Concentration (LC50)
SNB-75 = assay: cells; conditions: Homo sapiens, SNB-75, 48 h; for GI50: read-out: Median Growth Inhibitory Concentration (GI50); for CC50: read-out: Median Lethal Concentration (LC50)
NCI-H226 = assay: cells; conditions: Homo sapiens, NCI-H226, 48 h; for GI50: read-out: Median Growth Inhibitory Concentration (GI50); for CC50: read-out: Median Lethal Concentration (LC50)
RPMI-7951 human melanoma = assay: Neutral Red Assay, cell viability, RPMI-7951; conditions: Homo sapiens, RPMI-7951, read-out: Cell Viability
Experimental: (§1) RPMI-795 1, MDA-MB-231 and MDA-MB-435 cell lines were cultured in MEM-alpha medium (GIBCO-BRL, Long Island, N.Y.) containing 10% fetal bovine serum (RPMI-7951, MDA-MB-231) or 5% FBS (MDA-MB-435) at 37° C. and under 5% CO2/95% air. […] The cells were cultured in 48 well plates in all of the experiments described.
Neutral Red Assay was utilized to determine the effect of the compounds of the present invention on cell viability. Neutral Red was purchased from GIBCO-BRL (Long Island, N.Y.). Cells were plated at a concentration of 20,000 cells/well and cultured overnight. Compounds or vehicle (DMSO 0.1%) were then added and the plates were incubated for 72 hours. Supernatant from each well was either aspirated or collected and media containing Neutral Red (GIBCO-BRL, Long Island, N.Y.) at a concentration of 15 μl/ml was then added to each well. The plates were then incubated at 37° C. for 30 minutes. Next, the cells were washed with twice with PBS and alcoholic-HCl (0.5N—HCl/35% ethanol) was added to each well. The plates were then placed on a plate shaker until all residues were solubilized (pink color). The solubilized mixtures were then transferred to a 96 well plate and the absorbances were read on a micro-test plate reader at a wavelength of 570 nm.
Cell viability was determined by Neutral Red Assay.

KM12 = assay: cells; conditions: Homo sapiens, KM12, 48 h; for GI50: read-out: Median Growth Inhibitory Concentration (GI50); for CC50: read-out: Median Lethal Concentration (LC50)
MDA-MB-435 = assay: cells; conditions: Homo sapiens, MDA-MB-435, 48 h; for GI50: read-out: Median Growth Inhibitory Concentration (GI50); for CC50: read-out: Median Lethal Concentration (LC50)
OVCAR-5 = assay: cells; conditions: Homo sapiens, OVCAR-5, 48 h; for GI50: read-out: Median Growth Inhibitory Concentration (GI50); for CC50: read-out: Median Lethal Concentration (LC50)
SK-MEL-28 = assay: cells; conditions: Homo sapiens, SK-MEL-28, 48 h; for GI50: read-out: Median Growth Inhibitory Concentration (GI50); for CC50: read-out: Median Lethal Concentration (LC50)
UACC-257 = assay: cells; conditions: Homo sapiens, UACC-257, 48 h; for GI50: read-out: Median Growth Inhibitory Concentration (GI50); for CC50: read-out: Median Lethal Concentration (LC50)
DU-145 = assay: cells; conditions: Homo sapiens, DU-145, 48 h; for GI50: read-out: Median Growth Inhibitory Concentration (GI50); for CC50: read-out: Median Lethal Concentration (LC50)
SF-268 = assay: cells; conditions: Homo sapiens, SF-268, 48 h; for GI50: read-out: Median Growth Inhibitory Concentration (GI50); for CC50: read-out: Median Lethal Concentration (LC50)
NCI-H23 = assay: cells; conditions: Homo sapiens, NCI-H23, 48 h; for GI50: read-out: Median Growth Inhibitory Concentration (GI50); for CC50: read-out: Median Lethal Concentration (LC50)
786-0 = assay: cells; conditions: Homo sapiens, 786-0, 48 h; for GI50: read-out: Median Growth Inhibitory Concentration (GI50); for CC50: read-out: Median Lethal Concentration (LC50)
MALME-3M = assay: cells; conditions: Homo sapiens, 48 h; for GI50: read-out: Median Growth Inhibitory Concentration (GI50); for CC50: read-out: Median Lethal Concentration (LC50)
SNB-19 = assay: cells; conditions: Homo sapiens, SNB-19, 48 h; for GI50: read-out: Median Growth Inhibitory Concentration (GI50); for CC50: read-out: Median Lethal Concentration (LC50)
SK-OV-3 = assay: cells; conditions: Homo sapiens, SK-OV-3, 48 h; for GI50: read-out: Median Growth Inhibitory Concentration (GI50); for CC50: read-out: Median Lethal Concentration (LC50)
RPMI-8226 = assay: cells; conditions: Homo sapiens, RPMI-8226, 48 h; for GI50: read-out: Median Growth Inhibitory Concentration (GI50); for CC50: read-out: Median Lethal Concentration (LC50)
SR = assay: cells; conditions: Homo sapiens, 48 h; for GI50: read-out: Median Growth Inhibitory Concentration (GI50); for CC50: read-out: Median Lethal Concentration (LC50)
UO-31 = assay: cells; conditions: Homo sapiens, UO-31, 48 h; for GI50: read-out: Median Growth Inhibitory Concentration (GI50); for CC50: read-out: Median Lethal Concentration (LC50)
MDA-N = assay: cells; conditions: Homo sapiens, 48 h; for GI50: read-out: Median Growth Inhibitory Concentration (GI50); for CC50: read-out: Median Lethal Concentration (LC50)
SN12C = assay: cells; conditions: Homo sapiens, 48 h; for GI50: read-out: Median Growth Inhibitory Concentration (GI50); for CC50: read-out: Median Lethal Concentration (LC50)
[1] = tested on: Sixty human tumor cell lines; assay: cells; conditions: 48 h; for GI50: read-out: Median Growth Inhibitory Concentration (GI50), Mean; for CC50: read-out: Median Lethal Concentration (LC50), Mean
[2] = tested on: Vascular Endothelial Growth Factor (VEGF) production by human melanoma cell line RPMI-7951; assay: VEGF ELISA, RPMI-7951; conditions: Homo sapiens, RPMI-7951, 72 h, read-out: VEGF
Experimental: as §1
A VEGF enzyme-linked immunosorbent assay (ELISA) was utilized to determine the effect of the compounds of the present invention on VEGF production of a variety of human cancer cell lines. For the VEGF assay, cells were plated at a concentration of 80,000 cells/well and cultured overnight. Compounds or vehicle (DMSO 0.1%) were then added and the plates were incubated for 72 hours. Supernatant was then collected from each well and frozen in a −80° C. freezer until needed. Cell viability was determined by Neutral Red Assay. VEGF ELISA Kit (R & D, Minneapolis, Minn.) was used to determine the amount of VEGF in the culture supernatants. The ELISA was carried out according to the manufacturer's procedure.

HCC-2998 = assay: cells; conditions: Homo sapiens, HCC 2998, 48 h; for GI50: read-out: Median Growth Inhibitory Concentration (GI50); for CC50: read-out: Median Lethal Concentration (LC50)
OVCAR-3 = assay: cells; conditions: Homo sapiens, OVCAR-3, 48 h; for GI50: read-out: Median Growth Inhibitory Concentration (GI50); for CC50: read-out: Median Lethal Concentration (LC50)
IGROV1 = assay: cells; conditions: Homo sapiens, IGROV-1, 48 h; for GI50: read-out: Median Growth Inhibitory Concentration (GI50); for CC50: read-out: Median Lethal Concentration (LC50)
SF-539 = assay: cells; conditions: Homo sapiens, SF-539, 48 h; for GI50: read-out: Median Growth Inhibitory Concentration (GI50); for CC50: read-out: Median Lethal Concentration (LC50)

CC1(/C=C/c2ccccc2O)C=Cc2ccccc2O1 (stereo not drawn) [EF7]
GI50 (SK-MEL-2): 16.8 µM | CC50 (SK-MEL-2): 57 µM | GI50 (SNB-75): 11.8 µM | CC50 (SNB-75): 49 µM | GI50 (NCI-H226): 18.7 µM | CC50 (NCI-H226): 78.8 µM | viability at 20 µM (RPMI-7951 human melanoma): 78% | GI50 (KM12): 17.1 µM | CC50 (KM12): 55.5 µM | GI50 (MDA-MB-435): 17.5 µM | CC50 (MDA-MB-435): 56 µM | GI50 (OVCAR-5): 16.7 µM | CC50 (OVCAR-5): 58.4 µM | GI50 (SK-MEL-28): 17.4 µM | CC50 (SK-MEL-28): 62.9 µM | GI50 (UACC-257): 16.9 µM | CC50 (UACC-257): 55.2 µM | GI50 (DU-145): 16.4 µM | CC50 (DU-145): 54.8 µM | GI50 (SF-268): 19.8 µM | CC50 (SF-268): > 100 µM | GI50 (NCI-H23): 17.6 µM | CC50 (NCI-H23): 62.9 µM | GI50 (786-0): 16.4 µM | CC50 (786-0): 54.8 µM | GI50 (MALME-3M): 17.5 µM | CC50 (MALME-3M): 68.8 µM | GI50 (SNB-19): 17.5 µM | CC50 (SNB-19): 55.9 µM | GI50 (SK-OV-3): 16.6 µM | CC50 (SK-OV-3): 56.2 µM | GI50 (RPMI-8226): 14.8 µM | CC50 (RPMI-8226): 92.7 µM | GI50 (SR): 15.2 µM | CC50 (SR): 76.8 µM | GI50 (UO-31): 13.5 µM | CC50 (UO-31): 51.3 µM | GI50 (MDA-N): 16.1 µM | CC50 (MDA-N): 56.9 µM | GI50 (SN12C): 15.2 µM | CC50 (SN12C): 54.4 µM | GI50 [1]: 15.8 µM | CC50 [1]: 61.7 µM | activity at 20 µM [2]: 27% | GI50 (HCC-2998): 18.4 µM | CC50 (HCC-2998): 56.8 µM | GI50 (OVCAR-3): 15.6 µM | CC50 (OVCAR-3): 54.5 µM | GI50 (IGROV1): 15.9 µM | CC50 (IGROV1): 60.9 µM | GI50 (SF-539): 17.3 µM | CC50 (SF-539): 55.7 µM

OC(CCc1ccc(F)cc1F)CCc1ccc(F)cc1F [EF19, 1,5-Bis(2,4-difluorophenyl)-pentan-3-ol]
GI50 (SK-MEL-2): 18.4 µM | CC50 (SK-MEL-2): 57 µM | GI50 (SNB-75): 19 µM | CC50 (SNB-75): 57.5 µM | GI50 (NCI-H226): 19.9 µM | CC50 (NCI-H226): 75.7 µM | GI50 (KM12): 17.6 µM | CC50 (KM12): 56.1 µM | GI50 (MDA-MB-435): 17.1 µM | CC50 (MDA-MB-435): 55.6 µM | GI50 (OVCAR-5): 18.5 µM | CC50 (OVCAR-5): 61.1 µM | GI50 (SK-MEL-28): 17.1 µM | CC50 (SK-MEL-28): 55.6 µM | GI50 (UACC-257): 17.9 µM | CC50 (UACC-257): 56.3 µM | GI50 (DU-145): 18.1 µM | CC50 (DU-145): 56.6 µM | GI50 (SF-268): 21.5 µM | CC50 (SF-268): 85.3 µM | GI50 (NCI-H23): 22.8 µM | CC50 (NCI-H23): 96.8 µM | GI50 (786-0): 17 µM | CC50 (786-0): 55.4 µM | GI50 (MALME-3M): 18 µM | CC50 (MALME-3M): 59.6 µM | GI50 (SNB-19): 16.1 µM | CC50 (SNB-19): 57.3 µM | GI50 (SK-OV-3): 18.5 µM | CC50 (SK-OV-3): 65.9 µM | GI50 (RPMI-8226): 21.7 µM | CC50 (RPMI-8226): > 100 µM | GI50 (SR): 22.7 µM | CC50 (SR): 82.6 µM | GI50 (UO-31): 18.2 µM | CC50 (UO-31): 56.6 µM | GI50 (MDA-N): 16.9 µM | CC50 (MDA-N): 55.2 µM | GI50 (SN12C): 17.4 µM | CC50 (SN12C): 55.9 µM | GI50 [1]: 17.8 µM | CC50 [1]: 64.6 µM | GI50 (HCC-2998): 17.7 µM | CC50 (HCC-2998): 56.1 µM | GI50 (OVCAR-3): 17.9 µM | CC50 (OVCAR-3): 59.3 µM | GI50 (IGROV1): 17.2 µM | CC50 (IGROV1): 55.6 µM | GI50 (SF-539): 16.9 µM | CC50 (SF-539): 55.3 µM
